According to ChEMBL document CHEMBL1909046, “DrugMatrix in vitro pharmacology data”:

Legend:
Mu-type opioid receptor = Mu-type opioid receptor (Homo sapiens, UniProt P35372); test: DRUGMATRIX: Opiate mu (OP3, MOP) radioligand binding (ligand: [3H] Diprenorphine); type: cell membranes, CHO-K1, Membrane; settings: cho-k1; Not Active = under 50% inhibition at 10 µM
[1] = DRUGMATRIX: Serotonin (5-Hydroxytryptamine) 5-HT3 radioligand binding (ligand: [3H] GR-65630); type: cell membranes, Membrane; settings: hek293; Not Active = under 50% inhibition at 10 µM
[2] = target: T1, 5-hydroxytryptamine receptor 1A (Rattus norvegicus, UniProt P19327); type: cell membranes, CHO-K1, Membrane; settings: cho-k1; further: in other assays of this panel Not Active means under 50% inhibition at 10 µM
T1 sequence (P19327 whole entry): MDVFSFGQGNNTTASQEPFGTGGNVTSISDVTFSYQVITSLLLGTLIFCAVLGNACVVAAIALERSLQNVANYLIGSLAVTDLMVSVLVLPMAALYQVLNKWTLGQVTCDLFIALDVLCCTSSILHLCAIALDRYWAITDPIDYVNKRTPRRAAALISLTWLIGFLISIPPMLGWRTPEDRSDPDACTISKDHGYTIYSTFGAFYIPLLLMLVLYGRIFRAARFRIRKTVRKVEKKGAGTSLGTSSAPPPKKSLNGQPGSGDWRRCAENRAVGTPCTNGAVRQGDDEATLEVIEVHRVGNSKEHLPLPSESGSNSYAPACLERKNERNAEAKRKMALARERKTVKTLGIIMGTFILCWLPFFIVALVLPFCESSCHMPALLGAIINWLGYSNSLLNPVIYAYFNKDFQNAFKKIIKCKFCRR

[3] = DRUGMATRIX: Leukotriene, BLT (LTB4) radioligand binding (ligand: [3H]LTB4); type: cell membranes, Membrane; settings: u-937; Not Active = under 50% inhibition at 10 µM
Insulin receptor = Insulin receptor (Rattus norvegicus, UniProt P15127); type: cell membranes, Wistar, Liver, Membrane; further: in other assays of this panel Not Active means under 50% inhibition at 10 µM
Insulin receptor, sequence (P15127 27-759 limits assumed): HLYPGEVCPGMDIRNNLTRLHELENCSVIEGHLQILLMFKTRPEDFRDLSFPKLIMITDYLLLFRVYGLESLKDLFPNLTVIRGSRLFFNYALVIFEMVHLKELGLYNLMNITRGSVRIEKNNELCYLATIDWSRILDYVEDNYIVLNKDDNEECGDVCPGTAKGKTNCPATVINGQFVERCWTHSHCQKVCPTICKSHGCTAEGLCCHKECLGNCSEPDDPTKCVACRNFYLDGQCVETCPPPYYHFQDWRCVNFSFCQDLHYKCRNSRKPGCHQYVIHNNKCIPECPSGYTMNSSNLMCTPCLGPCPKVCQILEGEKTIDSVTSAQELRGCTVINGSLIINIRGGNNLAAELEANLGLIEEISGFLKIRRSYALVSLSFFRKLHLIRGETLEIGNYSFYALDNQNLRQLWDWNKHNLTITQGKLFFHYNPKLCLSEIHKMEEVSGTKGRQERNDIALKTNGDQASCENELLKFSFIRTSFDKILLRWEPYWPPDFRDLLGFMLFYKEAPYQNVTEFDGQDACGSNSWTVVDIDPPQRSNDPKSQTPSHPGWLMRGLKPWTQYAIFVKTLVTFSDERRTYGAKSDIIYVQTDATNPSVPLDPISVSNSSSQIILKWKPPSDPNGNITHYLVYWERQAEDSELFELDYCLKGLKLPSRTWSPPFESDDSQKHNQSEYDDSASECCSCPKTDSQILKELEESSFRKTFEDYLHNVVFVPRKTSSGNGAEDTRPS
Insulin receptor, sequence (P15127 764-1383 limits assumed): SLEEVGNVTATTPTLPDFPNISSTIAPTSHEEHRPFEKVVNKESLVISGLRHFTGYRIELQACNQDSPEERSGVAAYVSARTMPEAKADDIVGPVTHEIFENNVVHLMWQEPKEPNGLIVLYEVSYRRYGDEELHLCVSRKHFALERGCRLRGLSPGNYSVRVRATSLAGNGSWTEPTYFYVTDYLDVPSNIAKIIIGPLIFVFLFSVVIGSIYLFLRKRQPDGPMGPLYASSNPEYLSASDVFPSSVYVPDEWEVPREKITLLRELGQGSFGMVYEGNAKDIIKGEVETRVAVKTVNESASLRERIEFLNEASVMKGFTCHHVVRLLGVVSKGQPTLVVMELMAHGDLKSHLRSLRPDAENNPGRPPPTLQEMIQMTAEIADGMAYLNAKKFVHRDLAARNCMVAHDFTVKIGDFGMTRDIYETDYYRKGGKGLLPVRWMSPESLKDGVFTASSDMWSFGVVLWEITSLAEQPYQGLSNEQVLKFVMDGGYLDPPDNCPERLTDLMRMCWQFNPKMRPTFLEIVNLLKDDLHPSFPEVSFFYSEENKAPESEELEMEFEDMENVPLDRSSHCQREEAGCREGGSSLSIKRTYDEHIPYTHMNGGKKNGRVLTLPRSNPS

[4] = target: Delta-type opioid receptor (Homo sapiens, UniProt P41143); type: cell membranes, HEK293, Membrane; settings: hek293; further: in other assays of this panel Not Active means under 50% inhibition at 10 µM
Delta-type opioid receptor, sequence (P41143 whole entry): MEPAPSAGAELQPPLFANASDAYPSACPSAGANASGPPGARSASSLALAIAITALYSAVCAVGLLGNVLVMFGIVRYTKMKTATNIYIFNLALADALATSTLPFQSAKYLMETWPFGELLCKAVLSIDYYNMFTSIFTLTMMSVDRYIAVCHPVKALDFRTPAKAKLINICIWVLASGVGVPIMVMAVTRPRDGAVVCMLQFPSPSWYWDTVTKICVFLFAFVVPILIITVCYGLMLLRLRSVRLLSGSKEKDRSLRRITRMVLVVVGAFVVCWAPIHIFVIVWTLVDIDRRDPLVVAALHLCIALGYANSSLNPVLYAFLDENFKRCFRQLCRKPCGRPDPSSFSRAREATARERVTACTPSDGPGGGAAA

Cytochrome P450 2A6 = target: T2, Cytochrome P450 2A6 (Homo sapiens, UniProt P11509); settings: bti-tn-5b1-4; further: in other assays of this panel Not Active means under 50% inhibition at 10 µM
T2 sequence (P11509 whole entry): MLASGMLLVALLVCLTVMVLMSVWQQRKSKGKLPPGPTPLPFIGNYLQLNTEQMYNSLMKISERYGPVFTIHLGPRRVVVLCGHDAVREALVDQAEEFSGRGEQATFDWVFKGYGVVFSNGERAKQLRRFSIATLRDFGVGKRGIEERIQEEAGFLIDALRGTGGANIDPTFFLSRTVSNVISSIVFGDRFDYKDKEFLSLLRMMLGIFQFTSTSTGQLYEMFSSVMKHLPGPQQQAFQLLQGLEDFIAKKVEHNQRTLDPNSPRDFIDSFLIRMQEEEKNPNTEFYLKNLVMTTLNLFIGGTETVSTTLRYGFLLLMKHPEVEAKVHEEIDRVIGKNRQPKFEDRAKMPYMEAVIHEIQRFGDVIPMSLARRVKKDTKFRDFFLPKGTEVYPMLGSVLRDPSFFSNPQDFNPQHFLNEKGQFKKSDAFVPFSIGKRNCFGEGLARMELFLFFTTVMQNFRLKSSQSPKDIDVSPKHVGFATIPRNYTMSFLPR

[5] = DRUGMATRIX: GABAA, Chloride Channel, TBOB radioligand binding (ligand: [3H] TBOB); type: cell membranes, Rattus norvegicus, Wistar, Cerebral cortex, Membrane; settings: Not Active = under 50% inhibition at 10 µM
[6] = target: Aldo-keto reductase family 1 member B1 (Rattus norvegicus, UniProt P07943); type: tissue-based, Lens of camera-type eye
Leukotriene C4 synthase = target: T3, Leukotriene C4 synthase (Cavia porcellus, UniProt A6XA80); test: biochemical; type: tissue-based, Lung
T3 sequence (A6XA80 whole entry): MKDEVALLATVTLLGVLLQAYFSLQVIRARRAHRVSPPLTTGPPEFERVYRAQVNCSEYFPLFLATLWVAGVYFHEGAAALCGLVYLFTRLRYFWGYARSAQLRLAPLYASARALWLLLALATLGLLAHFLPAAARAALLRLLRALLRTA

[7] = target: T4, Muscarinic acetylcholine receptor M5 (Homo sapiens, UniProt P08912); type: cell membranes, CHO-K1, Membrane; settings: cho-k1; further: in other assays of this panel Not Active means under 50% inhibition at 10 µM
T4 sequence (P08912 whole entry): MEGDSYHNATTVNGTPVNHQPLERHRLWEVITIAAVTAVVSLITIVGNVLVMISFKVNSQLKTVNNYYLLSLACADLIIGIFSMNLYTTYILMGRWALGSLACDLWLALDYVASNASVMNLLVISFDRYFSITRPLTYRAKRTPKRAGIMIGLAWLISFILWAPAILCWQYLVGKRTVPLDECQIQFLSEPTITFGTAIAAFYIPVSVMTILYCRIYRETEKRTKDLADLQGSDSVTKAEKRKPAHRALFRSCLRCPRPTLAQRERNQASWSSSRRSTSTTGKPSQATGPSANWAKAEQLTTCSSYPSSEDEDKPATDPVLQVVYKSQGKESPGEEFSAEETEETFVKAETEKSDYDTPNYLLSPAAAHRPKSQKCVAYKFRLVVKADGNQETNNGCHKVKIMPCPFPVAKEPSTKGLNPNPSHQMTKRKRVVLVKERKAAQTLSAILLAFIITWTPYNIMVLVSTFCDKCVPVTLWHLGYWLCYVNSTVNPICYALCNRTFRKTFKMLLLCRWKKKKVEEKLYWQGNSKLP

[8] = target: T5, 5-hydroxytryptamine receptor 2C (Homo sapiens, UniProt P28335); test: DRUGMATRIX: Serotonin (5-Hydroxytryptamine) 5-HT2C radioligand binding (ligand: [3H] Mesulergine); type: cell membranes, CHO-K1, Membrane; settings: cho-k1; Not Active = under 50% inhibition at 10 µM
T5 sequence (P28335 whole entry): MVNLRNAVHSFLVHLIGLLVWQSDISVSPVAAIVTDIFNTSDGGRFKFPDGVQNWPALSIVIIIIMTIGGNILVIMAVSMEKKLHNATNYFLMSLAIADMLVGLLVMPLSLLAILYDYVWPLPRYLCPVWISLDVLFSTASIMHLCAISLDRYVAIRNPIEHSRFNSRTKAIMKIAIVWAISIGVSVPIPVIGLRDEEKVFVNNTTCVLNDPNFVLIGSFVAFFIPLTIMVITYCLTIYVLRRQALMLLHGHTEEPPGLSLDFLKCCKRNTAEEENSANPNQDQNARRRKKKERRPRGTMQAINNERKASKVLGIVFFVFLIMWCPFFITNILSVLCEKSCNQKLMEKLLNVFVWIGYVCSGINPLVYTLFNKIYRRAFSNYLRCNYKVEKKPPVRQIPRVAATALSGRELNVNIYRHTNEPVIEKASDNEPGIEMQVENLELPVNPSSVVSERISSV

Melanocortin receptor 3 = Melanocortin receptor 3 (Homo sapiens, UniProt P41968); type: cell membranes, Membrane; settings: hek293; further: in other assays of this panel Not Active means under 50% inhibition at 10 µM
Melanocortin receptor 3, sequence (P41968 whole entry): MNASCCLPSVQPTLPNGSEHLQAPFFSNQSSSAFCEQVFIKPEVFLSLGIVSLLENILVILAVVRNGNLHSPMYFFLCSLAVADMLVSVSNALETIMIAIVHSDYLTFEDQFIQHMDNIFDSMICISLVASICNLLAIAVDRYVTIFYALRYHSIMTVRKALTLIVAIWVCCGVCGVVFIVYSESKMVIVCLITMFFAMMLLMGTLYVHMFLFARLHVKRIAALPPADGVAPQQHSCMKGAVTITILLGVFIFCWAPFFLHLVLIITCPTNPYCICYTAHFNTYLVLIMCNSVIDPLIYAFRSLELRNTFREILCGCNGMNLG

[9] = DRUGMATRIX: Glutamate, NMDA, Agonism radioligand binding (ligand: [3H] CGP-39653); type: cell membranes, Rattus norvegicus, Wistar, Cerebral cortex, Membrane; settings: Not Active = under 50% inhibition at 10 µM

Mu-type opioid receptor, sequence (P35372 whole entry): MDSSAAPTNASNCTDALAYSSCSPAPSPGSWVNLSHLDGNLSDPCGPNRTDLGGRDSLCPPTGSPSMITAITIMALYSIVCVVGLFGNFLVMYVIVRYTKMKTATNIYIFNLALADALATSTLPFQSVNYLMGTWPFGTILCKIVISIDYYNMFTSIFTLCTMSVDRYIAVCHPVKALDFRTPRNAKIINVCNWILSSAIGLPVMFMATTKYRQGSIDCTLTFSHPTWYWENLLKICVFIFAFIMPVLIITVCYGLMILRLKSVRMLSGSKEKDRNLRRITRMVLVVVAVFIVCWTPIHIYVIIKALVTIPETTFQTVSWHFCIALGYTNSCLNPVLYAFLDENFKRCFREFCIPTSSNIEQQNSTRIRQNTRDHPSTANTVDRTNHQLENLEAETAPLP

CC1CN(c2cc3c(cc2F)c(=O)c(C(=O)O)cn3-c2ccc(F)cc2F)CCN1 (centres undefined) [TEMAFLOXACIN]
Not Active: IC50 (Mu-type opioid receptor) | IC50 [1] | Ki [1] | IC50 [2] | IC50 [3] | Ki [3] | IC50 (Insulin receptor) | IC50 [4] | IC50 (Cytochrome P450 2A6) | Ki (Cytochrome P450 2A6) | IC50 [5] | Ki [5] | IC50 [6] | IC50 (Leukotriene C4 synthase) | IC50 [7] | IC50 [8] | IC50 (Melanocortin receptor 3) | IC50 [9] | Ki [9]

CC(C)(C)NCC(O)c1cc(O)cc(O)c1 (centres undefined) [TERBUTALINE]
Not Active: IC50 (Mu-type opioid receptor) | IC50 [1] | Ki [1] | IC50 [2] | IC50 [3] | Ki [3] | IC50 (Insulin receptor) | IC50 [4] | IC50 (Cytochrome P450 2A6) | Ki (Cytochrome P450 2A6) | IC50 [5] | Ki [5] | IC50 [6] | IC50 (Leukotriene C4 synthase) | IC50 [7] | IC50 [8] | IC50 (Melanocortin receptor 3) | IC50 [9] | Ki [9]

CN(C)[C@@H]1C(O)=C(C(N)=O)C(=O)[C@@]2(O)C(O)=C3C(=O)c4c(O)cccc4[C@@](C)(O)[C@H]3C[C@@H]12 [TETRACYCLINE]
Not Active: IC50 (Mu-type opioid receptor) | IC50 [1] | Ki [1] | IC50 [2] | IC50 [3] | Ki [3] | IC50 (Insulin receptor) | IC50 [4] | IC50 (Cytochrome P450 2A6) | Ki (Cytochrome P450 2A6) | IC50 [5] | Ki [5] | IC50 [6] | IC50 (Leukotriene C4 synthase) | IC50 [7] | IC50 [8] | IC50 (Melanocortin receptor 3) | IC50 [9] | Ki [9]

c1ccc2[nH]c(-c3cscn3)nc2c1 [THIABENDAZOLE]
Not Active: IC50 (Mu-type opioid receptor) | IC50 [1] | Ki [1] | IC50 [2] | IC50 [3] | Ki [3] | IC50 (Insulin receptor) | IC50 [4] | IC50 (Cytochrome P450 2A6) | Ki (Cytochrome P450 2A6) | IC50 [5] | Ki [5] | IC50 [6] | IC50 (Leukotriene C4 synthase) | IC50 [7] | IC50 [8] | IC50 (Melanocortin receptor 3) | IC50 [9] | Ki [9]

Cc1ccc(C(=O)C(C)CN2CCCCC2)cc1 (centres undefined) [TOLPERISONE]
Not Active: IC50 (Mu-type opioid receptor) | IC50 [1] | Ki [1] | IC50 [2] | IC50 [3] | Ki [3] | IC50 (Insulin receptor) | IC50 [4] | IC50 (Cytochrome P450 2A6) | Ki (Cytochrome P450 2A6) | IC50 [5] | Ki [5] | IC50 [6] | IC50 (Leukotriene C4 synthase) | IC50 [7] | IC50 [8] | IC50 (Melanocortin receptor 3) | IC50 [9] | Ki [9]

NC(CO)(CO)CO [TROMETHAMINE]
Not Active: IC50 (Mu-type opioid receptor) | IC50 [1] | Ki [1] | IC50 [2] | IC50 [3] | Ki [3] | IC50 (Insulin receptor) | IC50 [4] | IC50 (Cytochrome P450 2A6) | Ki (Cytochrome P450 2A6) | IC50 [5] | Ki [5] | IC50 [6] | IC50 (Leukotriene C4 synthase) | IC50 [7] | IC50 [8] | IC50 (Melanocortin receptor 3) | IC50 [9] | Ki [9]
